# Laboratory results published in patent US11130733B2, “4-OXO-alkylated tetramic acid compound, preparation method and use thereof” (BEIJING JOEKAI BIOTECH. LLC, priority 2017, dated 2021).
# Columns and labels:
# [1] = test system: Transgenic mice containing APP/PS1; experiment: Water maze test of spatial memory in mice; assay type: in vivo
# Method: Transgenic mice containing APP/PS1 were purchased from the Jackson Laboratory of the USA. The transgenic mice were crossbred with B6/C3 background mice. Their offspring were self-bred, genotyped, and each fed in a separate cage for about 8 months. One week before the test, a prescribed dose of medicament was administered to the mice by gavage each day, and then the spatial memory of the mice was measured by water maze test. A water tank with a diameter of 1.5 meters was filled with water at a constant temperature of 25 degrees, and skim milk was added to render the water surface opaque. A transparent platform was placed in a specific quadrant of the water tank. Distant hints were provided as spatial reference. The mice were put into the water and allowed to swim until they found the platform under the surface of water. The whole process was tracked by software, and the time from launching to finding the platform, called a latent period, was recorded thereby. If a mouse could not find the platform within 60 seconds, it was manually guided to the platform and its latent period was recorded as 60 seconds. Four rounds of the above tests were carried out on each mouse every day, with a one-hour interval between every two rounds of tests for the mice to rest. The latent period of each mouse on a day was the average of the four rounds of tests on the same day.
# [2] = test system: Salmonella typhimurium TA100; experiment: Mini Ames experiment, strain TA100; assay type: cell-based
# Method: Histidine auxotrophic strains of Salmonella typhimurium were cultured in a special medium with quite a low content of histidine. The strains were difficult to divide due to lack of nutrition. If a test compound has mutagenicity, a large number of cells will undergo reverse mutation, synthesizing histidine by themselves and developing into colonies visible to the naked eye. In view of the close relationship between mutagenicity and carcinogenesis of chemicals, this method has been widely used in screening carcinogens. Some chemicals need metabolic activation to induce mutagenicity. Mammalian microsomal enzyme S9 can be added into the test system to eliminate the influence of metabolic activation on generation of mutagenicity.
# […] Mini Ames test with compound 50561
# [3] = test system: CR mice; experiment: MTD experiment, dose gradient by gavage; assay type: in vivo; details: for Survival number: 10 mice per dose
# Method: Mice are commonly used rodents to evaluate the toxicity of a test sample and are also an important part of early preclinical safety evaluation. In this experiment, the toxicity of compound 50561 was tested by administering a dose gradient thereof to the mice by gavage and observing its toxicity.
# This experiment was designed such that for each dose centration, 10 mice were tested, including half males and half females. The males each weighed about 18-23 grams, and the females each weighed about 17-21 grams. They were randomly grouped by a simple randomization procedure. All the animals used in the experiment weighed between ±20% of the average body weight of their respective genders. If there are not enough animals in the study to meet the weight range required thereby, notify the responsible person of the project to take reasonable measures. Animals must be adapted to the laboratory for at least three days. During this period, daily cage observation was conducted once a day, and a detailed clinical observation was necessary before the experiment. Any animal with symptoms or physical abnormalities would be reported to the attending veterinarian and responsible person of the project, and excluded whenever possible. Animals suitable for experimentation will be assigned to respective experimental groups according to the random grouping method described above.
# During the experiment, after administration, all animals were observed continuously for 4 hours; from the end of administration till 3 days thereafter, observations were carried out twice each day, one in the morning and the other in the afternoon; and then observation was carried out once a day. Observations included but were not limited to: skin, hair, eyes, ears, nose, mouth, chest, abdomen, external genitals, limbs, and feet. The respiratory and circulatory systems, autonomic effects (such as salivation), and nervous system (such as tremors, convulsions, stress responses, and abnormal behaviors) should be focused on. Complete anatomical examinations would be performed on all animals that had died, were dying, or planned to be euthanized. Animals found dead outside of fixed working hours could be placed in the refrigerator overnight and dissected immediately on the next working day. At the end of the experiment (14th day after administration), all animals requiring autopsy would be euthanized and autopsied.
# External abnormalities in animals, such as palpable masses, should be examined in detail. The skin would be cut along the midline of the abdomen, and any subcutaneous mass would be confirmed in conjunction with the findings in the observations of animal symptoms. […] Diseased organs were removed, weighed, recoded, and kept in a fixative fluid.
# [4] = test system: Drosophilae containing and expressing human Abeta42 gene; experiment: Pavlov's olfactory-related instantaneous memory test in Drosophila; assay type: in vivo; details: FIG. 3; with increase of dosage; compared with positive compound memantine hydrochloride
# [5] = TA100, With Metabolic Activation, 1.5 μg per well
# [6] = TA100, With Metabolic Activation, 4 μg per well
# [7] = TA100, With Metabolic Activation, 10 μg per well
# [8] = TA100, With Metabolic Activation, 25 μg per well
# [9] = TA100, With Metabolic Activation, 64 μg per well
# [10] = TA100, With Metabolic Activation, 160 μg per well
# [11] = TA100, With Metabolic Activation, 400 μg per well
# [12] = TA100, With Metabolic Activation, 1000 μg per well
# [13] = TA100, Without Metabolic Activation, 1.5 μg per well
# [14] = TA100, Without Metabolic Activation, 4 μg per well
# [15] = TA100, Without Metabolic Activation, 10 μg per well
# [16] = TA100, Without Metabolic Activation, 25 μg per well
# [17] = TA100, Without Metabolic Activation, 64 μg per well
# [18] = TA100, Without Metabolic Activation, 160 μg per well
# [19] = TA100, Without Metabolic Activation, 400 μg per well
# [20] = TA100, Without Metabolic Activation, 1000 μg per well
structure (smiles),measurement,setting,value
O=C1C=C(OCc2ccc(F)cc2)[C@H](Cc2ccccc2)N1 [Compound 50561],ability to rescue the spatial memory of mice,"[1]; 0.1 mg/kg by gavage, FIG. 5",no ability to rescue the spatial memory of mice
same,ability to rescue the spatial memory of mice,"[1]; 1 mg/kg by gavage, FIG. 5",no ability to rescue the spatial memory of mice
same,ability to rescue the spatial memory of mice,"[1]; 10 mg/kg by gavage, FIG. 4",good ability to rescue the spatial memory of mice
same,Mean Revertants Per Well,[2]; [5],25.33
same,Ratio Treated/Solvent,[2]; [5],0.78
same,Mean Revertants Per Well,[2]; [6],30.33
same,Ratio Treated/Solvent,[2]; [6],0.93
same,Mean Revertants Per Well,[2]; [7],32.33
same,Ratio Treated/Solvent,[2]; [7],0.99
same,Mean Revertants Per Well,[2]; [8],28.67
same,Ratio Treated/Solvent,[2]; [8],0.88
same,Mean Revertants Per Well,[2]; [9],31.00
same,Ratio Treated/Solvent,[2]; [9],0.95
same,Mean Revertants Per Well,[2]; [10],28.33
same,Ratio Treated/Solvent,[2]; [10],0.87
same,Mean Revertants Per Well,[2]; [11],0.00
same,Ratio Treated/Solvent,[2]; [11],0.00
same,Mean Revertants Per Well,[2]; [12],0.00
same,Ratio Treated/Solvent,[2]; [12],0.00
same,Mean Revertants Per Well,[2]; [13],25.67
same,Ratio Treated/Solvent,[2]; [13],1.04
same,Mean Revertants Per Well,[2]; [14],25.33
same,Ratio Treated/Solvent,[2]; [14],1.03
same,Mean Revertants Per Well,[2]; [15],28.67
same,Ratio Treated/Solvent,[2]; [15],1.16
same,Mean Revertants Per Well,[2]; [16],19.00
same,Ratio Treated/Solvent,[2]; [16],0.77
same,Mean Revertants Per Well,[2]; [17],23.33
same,Ratio Treated/Solvent,[2]; [17],0.95
same,Mean Revertants Per Well,[2]; [18],17.33
same,Ratio Treated/Solvent,[2]; [18],0.70
same,Mean Revertants Per Well,[2]; [19],0.00
same,Ratio Treated/Solvent,[2]; [19],0.00
same,Mean Revertants Per Well,[2]; [20],0.00
same,Ratio Treated/Solvent,[2]; [20],0.00
same,mutagenicity,"[2]; TA100, presence or absence of S9",no obvious mutagenicity
same,Remarks: condition of the body,[3]; 250 mg/kg,in good condition.
same,Survival number,[3]; 250 mg/kg by gavage,10
same,Remarks: Body weight decreased by,"[3]; 250 mg/kg, quickly recovered","about 2 g, which was quickly"
same,Remarks: Body weight decreased by,[3]; 500 mg/kg,about 2 g; individual activity
same,Remarks: condition of the body; organs of the dead individuals,[3]; 500 mg/kg,in good condition. There
same,Survival number,[3]; 500 mg/kg by gavage,8
same,Remarks: organs in dead individuals,[3]; 750 mg/kg,No abnormality of organs
same,Survival number,[3]; 750 mg/kg by gavage,0
same,Remarks: organs in dead individuals,[3]; 1000 mg/kg,No abnormality of organs
same,Survival number,[3]; 1000 mg/kg by gavage,0
same,maximum tolerance (MTD),"[3]; CR mice, by gavage",< 500 mg/kg
same,dose-effect relationship to improve memory of drosophilae,[4],eventually reaches or exceeds the level of the activity of the positive compound memantine hydrochloride
